The source of these data is patent US4859452A (priority 1987, dated 1989).

Where two headings read alike, the source gives them in different places.

Data set [1] concerns DFMO-Induced Thrombocytopenia. In words: Influence of ornithine co-administration on DFMO-induced thrombocytopenia in the rat. The conditions noted are these: in words.
Method: (§1) Central venous catheters were inserted into Fisher 344 male rats. […] This concentration is equimolar to the arginine concentration in 10% Travasol. After 12 days of infusion the rats were sacrificed and platelet counts were determined in peripheral blood.
Data set [2] in a line: RBC putrescine in tumor-bearing versus non tumor-bearing rats infused with feeding solutions. The conditions noted are these: NTB rats; p<0.05.
From the text: A methylcholanthrene-induced fibrosarcoma (0.17 g) was implanted as a brei into the right flank under anesthesia and the animals were fed a chow diet for 21 days. When the tumors were at least 1.0 cm in width, two-dimensional measurements with calipers were instituted and the equation, length (cm)×(width [cm])^2 ×1/2=grams of tumor tissue, was used to estimate tumor weight. […] The animals were then allowed to recover overnight and continuous infusions were started the next morning. […] After 6 days of continuous infusion, the animals were sacrificed by aortic bleeding. Liver and tumor were excised and weighed and kept frozen at -70° C. until assays were done. Only viable, nonnecrotic tumor tissue was saved and assayed.
The conditions of data set [3]: in words; tumor and RBC.
Method: After obtaining the blood sample by venipuncture, or some other suitable means, blood hematocrit is determined and the blood is centrifuged for 10 minutes at 500 g. The plasma is removed for albumin determination and the remaining cells are washed with an equal volume of cold 0.9% NaCl and centrifuged at 200 g for 15 minutes. The buffy coat is then carefully aspirated along with the supernatant and discarded. After thoroughly mixing the packed RBC, a 1.0 ml aliquot is extracted for polyamine analysis. While shaking continuously with a Vortex mixer, 2.5 ml of freshly prepared 6% trichloroacetic acid (TCA) is added followed by 60 ul of 100% TCA. This is done to avoid insufficient mixing if 100% TCA is added directly to RBC. The samples are mixed thoroughly for a minimum of 3 minutes and frozen at -70° C. if further extraction steps are performed. The samples are thawed and centrifuged at 200×g for 15 minutes. The supernatant is then transferred to tubes containing 40 ul of concentrated HCl. The samples are washed twice with anhydrous ether and dried. The pellets are dissolved in 100 ul of 0.5 N HCl and centrifuged at 200 g. The clear supernatant is then analyzed for polyamines using, for example, a Durrum D-500 amino acid analyzer.
A methylcholanthrene-induced fibrosarcoma (0.17 g) was implanted as a brei into the right flank under anesthesia and the animals were fed a chow diet for 21 days. […]
A short description of data set [4]: Toxicity of continuous i.v. DFMO infusion for 12 days in tumor-bearing and non-tumor-bearing rats. The class given is in vivo, rat. From the text: FIG. 3. […] Bars indicate standard deviation.
In the above described rat model, a continuous infusion of DFMO was given through a central venous catheter.

For data set [5] the following is noted: human, in vivo. From the text:
FIG. 4. Platelet counts plotted against days of continuous i.v. DFMO infusion in patients with advanced colorectal carcinoma. […] The paired points are connected by a straight line.
There was no incidence of nausea, vomiting or diarrhea.

Data set [6] has as its system DFMO-Induced Thrombocytopenia. The note with it: rat, in vivo.
Method: as §1
Data set [7] concerns ornithine decarboxylase (ODC). The conditions noted are these: cited from earlier work.
In data set [8] the test system is MCA sarcoma.

For the compound `NCCC[C@H](N)C(=O)O` [ornithine], in data set [1], the “effect on platelet suppression / platelet count” value is on record as “significant reversal in the platelet suppression”.

Consider `N=C(N)NCCC[C@H](N)C(=O)O` [arginine], for which the “increase in RBC putrescine levels versus chow or essential amino acids only” value in data set [2] is given as “significantly greater (p<0.05) than those receiving chow or essential amino acids only”. Also, the “comparison of ornithine and arginine for increase in polyamine levels” value in data set [3] is listed as “both appeared to promote an increase in tumor-related levels”.

As for `NCCCC(N)(C(=O)O)C(F)F` (stereo not shown) [DFMO, Difluoromethylornithine], in data set [4] (rat, in vivo), the “small intestinal mucosa histology” value is on record as “histological evidence of small intestinal mucosal atrophy”; the “white cell count and hematocrit changes” value is “not significantly altered”. The clinical toxicity result in data set [4] (rats, 12 day study) is recorded as “no significant clinical toxicity”. In addition, in data set [5], the “decreased hearing acuity, patients” value is listed as “two”; the hematocrit result was “Significant suppression of the hematocrit was also noted with a trend toward dose related suppression”; the “nausea, vomiting or diarrhea” value is listed as “no incidence”; the “platelet suppression, 8 g dose compared with 6 g dose” value is reported as “significantly greater platelet at the 8 g dose as compared with the 6 g dose”. Besides, in data set [5], the “time to resolution of all toxicities after discontinuing infusion” value is listed as “two” and the white cell count entry is “not affected by either dose”. The “effect on platelet suppression / platelet count” value in data set [6] is on record as “significant decrease in platelet count as compared with the saline treatment”. Also, the ODC inhibition mode result in data set [7] is “irreversible inhibitor of ODC”. In addition, the tumor growth entry in data set [8] (MCA sarcoma) was “reduces the growth rate of an MCA sarcoma but does not produce tumor regression”. For the same compound, the “effect on peripheral platelet counts” value in data set [8] (rat, in vivo) is on record as “without suppressing peripheral platelet counts”.
